Laboratory results from patent US7964607B2, “Pyrazolo[3,4-d]pyrimidine compounds” (Pfizer Inc., priority 2007, dated 2011).

Each compound was assayed against T1, human recombinant PDE9 enzyme (Homo sapiens, UniProt O76083) (assay: Phosphodiesterase 9 (PDE9) inhibitory activity, Scintillation Proximity (SPA) assay). Conditions: human recombinant PDE9 from SF-9 cells; 50 nM [3H]cGMP; room temperature, 30 min; additional compounds Ex. 115-228; read-out: G5678A (U):IC50.
T1 construct: made in house; host or cells: SF-9 insect cells
Type: biochemical
Outline: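 Recombinant human PDE9 from SF-9 cell lysate supernatant, diluted so that ≤20% of [3H]cGMP substrate was hydrolysed to 5′GMP. Reaction started with enzyme and run 30 min at room temperature with 2% DMSO final. SPA beads were counted after >300 min; background came from a high concentration of a PDE inhibitor.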

T1 sequence (O76083 whole entry): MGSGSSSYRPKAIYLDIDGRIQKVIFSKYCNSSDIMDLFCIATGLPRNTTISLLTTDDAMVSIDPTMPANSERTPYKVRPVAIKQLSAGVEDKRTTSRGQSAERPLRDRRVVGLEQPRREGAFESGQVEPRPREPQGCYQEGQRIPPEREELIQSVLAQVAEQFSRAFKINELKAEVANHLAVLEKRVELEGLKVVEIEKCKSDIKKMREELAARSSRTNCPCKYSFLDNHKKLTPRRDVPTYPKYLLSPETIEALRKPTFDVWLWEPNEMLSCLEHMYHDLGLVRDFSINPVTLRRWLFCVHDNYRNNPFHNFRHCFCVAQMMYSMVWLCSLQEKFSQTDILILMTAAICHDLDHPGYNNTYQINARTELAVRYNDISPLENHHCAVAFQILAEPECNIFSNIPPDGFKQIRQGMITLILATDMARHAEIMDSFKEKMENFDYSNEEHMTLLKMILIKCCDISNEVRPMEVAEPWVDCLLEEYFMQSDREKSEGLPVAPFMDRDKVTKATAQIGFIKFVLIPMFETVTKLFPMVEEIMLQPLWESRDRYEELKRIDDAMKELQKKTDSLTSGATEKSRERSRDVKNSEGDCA

| Structure (SMILES) | IC50 [nM] |
| --- | --- |
| COc1cccc(F)c1CN1C[C@@H](C)[C@H](c2nc3c(cnn3C3CCCC3)c(=O)[nH]2)C1 (racemic) [Example 146, 1-cyclopentyl-6-[(3,4-trans)-1-(2-fluoro-6-methoxybenzyl)-4-methylpyrrolidin-3-yl]-1,5-dihydro-4H-pyrazolo[3,4-d]pyrimidin-4-one] | 165 |
| C[C@@H]1CN(Cc2ccc(F)cc2F)C[C@H]1c1nc2c(cnn2C2CCCC2)c(=O)[nH]1 (racemic) [Example 147, 1-cyclopentyl-6-[(3,4-trans)-1-(2,4-difluorobenzyl)-4-methylpyrrolidin-3-yl]-1,5-dihydro-4H-pyrazolo[3,4-d]pyrimidin-4-one] | 79.8 |
| COc1cc(CN2C[C@@H](C)[C@H](c3nc4c(cnn4C4CCCC4)c(=O)[nH]3)C2)ccc1F (racemic) [Example 148, 1-cyclopentyl-6-[(3,4-trans)-1-(4-fluoro-3-methoxybenzyl)-4-methylpyrrolidin-3-yl]-1,5-dihydro-4H-pyrazolo[3,4-d]pyrimidin-4-one] | 36 |
| C[C@@H]1CN(Cc2cccc3c2OCCO3)C[C@H]1c1nc2c(cnn2C2CCCC2)c(=O)[nH]1 (racemic) [Example 149, 1-cyclopentyl-6-[(3,4-trans)-1-(2,3-dihydro-1,4-benzodioxin-5-ylmethyl)-4-methylpyrrolidin-3-yl]-1,5-dihydro-4H-pyrazolo[3,4-d]pyrimidin-4-one] | 47.1 |
| C[C@@H]1CN(Cc2ccc(F)cc2Cl)C[C@H]1c1nc2c(cnn2C2CCCC2)c(=O)[nH]1 (racemic) [Example 150, 6-[(3,4-trans)-1-(2-chloro 4-fluorobenzyl)-4-methylpyrrolidin-3-yl]-1-cyclopentyl-1,5-dihydro-4H-pyrazolo[3,4-] pyrimidin-4-one] | 93.5 |
| Cc1ccc(CN2C[C@@H](C)[C@H](c3nc4c(cnn4C4CCCC4)c(=O)[nH]3)C2)c(C)c1 (racemic) [Example 151, 1-cyclopentyl-6-[(3,4-trans)-1-(2,4-dimethylbenzyl)-4-methylpyrrolidin-3-yl]-1,5-dihydro-4H-pyrazolo[3,4-d]pyrimidin-4-one] | 117 |
| COc1cc(CN2C[C@@H](C)[C@H](c3nc4c(cnn4C4CCCC4)c(=O)[nH]3)C2)cc(OC)c1 (racemic) [Example 152, 1-cyclopentyl-6-[(3,4-trans)-1-(3,5-dimethoxybenzyl)-4-methylpyrrolidin-3-yl]-1,5-dihydro-4H-pyrazolo[3,4-d]pyrimidin-4-one] | 42.2 |
| CCOc1cccc(CN2C[C@@H](C)[C@H](c3nc4c(cnn4C4CCCC4)c(=O)[nH]3)C2)c1 (racemic) [Example 153, 1-cyclopentyl-6-[(3,4-trans)-1-(3-ethoxybenzyl)-4-methylpyrrolidin-3-yl]-1,5-dihydro-4H-pyrazolo[3,4-d]pyrimidin-4-one] | 54.4 |
| C[C@@H]1CN(Cc2ccc(Cl)cc2F)C[C@H]1c1nc2c(cnn2C2CCCC2)c(=O)[nH]1 (racemic) [Example 154, 6-[(3,4-trans)-1-(4-chloro-2-fluorobenzyl)-4-methylpyrrolidin-3-yl]-1-cyclopentyl-1,5-dihydro-4H-pyrazolo[3,4-d]pyrimidin-4-one] | 175 |
| C[C@@H]1CN(Cc2cccc(C#N)c2)C[C@H]1c1nc2c(cnn2C2CCCC2)c(=O)[nH]1 (racemic) [Example 155, 3-{[(3,4-trans)-3-(1-cyclopentyl-4-oxo-4,5-dihydro-1H-pyrazolo[3,4-d]pyrimidin-6-yl)-4-methylpyrrolidin-1-yl]methyl}benzonitrile] | 27.9 |
| C[C@@H]1CN(Cc2cc(F)ccc2F)C[C@H]1c1nc2c(cnn2C2CCCC2)c(=O)[nH]1 (racemic) [Example 156, 1-cyclopentyl-6-[(3,4-trans)-1-(2,5-difluorobenzyl)-4-methylpyrrolidin-3-yl]-1,5-dihydro-4H-pyrazolo[3,4-d]pyrimidin-4-one] | 40.8 |
| C[C@@H]1CN(Cc2ccccc2C#N)C[C@H]1c1nc2c(cnn2C2CCCC2)c(=O)[nH]1 (racemic) [Example 157, 2-{[(3,4-trans)-3-(1-cyclopentyl-4-oxo-4,5-dihydro-1H-pyrazolo[3,4-d]pyrimidin-6-yl)-4-methylpyrrolidin-1-yl]methyl}benzonitrile] | 56.4 |
| C[C@@H]1CN(Cc2ccc(F)c(Cl)c2)C[C@H]1c1nc2c(cnn2C2CCCC2)c(=O)[nH]1 (racemic) [Example 158, 6-[(3,4-trans)-1-(3-chloro-4-fluorobenzyl)-4-methylpyrrolidin-3-yl]-1-cyclopentyl-1,5-dihydro-4H-pyrazolo[3,4-d]pyrimidin-4-one] | 50.9 |
| C[C@@H]1CN(Cc2ccc(OC(F)F)cc2)C[C@H]1c1nc2c(cnn2C2CCCC2)c(=O)[nH]1 (racemic) [Example 159, 1-cyclopentyl-6-{(3,4-trans)-1-[4-(difluoromethoxy)benzyl]-4-methylpyrrolidin-3-yl}-1,5-dihydro-4H-pyrazolo[3,4-d]pyrimidin-4-one] | 59.9 |
| Cc1cccc(CN2C[C@@H](C)[C@H](c3nc4c(cnn4C4CCCC4)c(=O)[nH]3)C2)c1 (racemic) [Example 160, 1-cyclopentyl-6-[(3,4-trans)-4-methyl-1-(3-methylbenzyl)pyrrolidin-3-yl]-1,5-dihydro-4H-pyrazolo[3,4-d]pyrimidin-4-one] | 43.4 |
| C[C@@H]1CN(Cc2ccc(F)c(F)c2)C[C@H]1c1nc2c(cnn2C2CCCC2)c(=O)[nH]1 (racemic) [Example 161, 1-cyclopentyl-6-[(3,4-trans)-1-(3,4-difluorobenzyl)-4-methylpyrrolidin-3-yl]-1,5-dihydro-4H-pyrazolo[3,4-d]pyrimidin-4-one] | 40.4 |
| Cc1ccc(C)c(CN2C[C@@H](C)[C@H](c3nc4c(cnn4C4CCCC4)c(=O)[nH]3)C2)c1 (racemic) [Example 162, 1-cyclopentyl-6-[(3,4-trans)-1-(2,5-dimethylbenzyl)-4-methylpyrrolidin-3-yl]-1,5-dihydro-4H-pyrazolo[3,4-d]pyrimidin-4-one] | 60.1 |
| C[C@@H]1CN(Cc2cccc(Cl)c2F)C[C@H]1c1nc2c(cnn2C2CCCC2)c(=O)[nH]1 (racemic) [Example 163, 6-[(3,4-trans)-1-(3-chloro-2-fluorobenzyl)-4-methylpyrrolidin-3-yl]-1-cyclopentyl-1,5-dihydro-4H-pyrazolo[3,4-d]pyrimidin-4-one] | 53.4 |
| C[C@@H]1CN(Cc2cccc(Cl)c2Cl)C[C@H]1c1nc2c(cnn2C2CCCC2)c(=O)[nH]1 (racemic) [Example 164, 1-cyclopentyl-6-[(3,4-trans)-1-(2,3-dichlorobenzyl)-4-methylpyrrolidin-3-yl]-1,5-dihydro-4H-pyrazolo[3,4-d]pyrimidin-4-one] | 78.9 |
| C[C@@H]1CN(Cc2nccs2)C[C@H]1c1nc2c(cnn2C2CCCC2)c(=O)[nH]1 (racemic) [Example 165, 1-cyclopentyl-6-[(3,4-trans)-4-methyl-1-(1,3-thiazol-2-ylmethyl)pyrrolidin-3-yl]-1,5-dihydro-4H-pyrazolo[3,4-d]pyrimidin-4-one] | 54.2 |
| Cc1c(F)cccc1CN1C[C@@H](C)[C@H](c2nc3c(cnn3C3CCCC3)c(=O)[nH]2)C1 (racemic) [Example 166, 1-cyclopentyl-6-[(3,4-trans)-1-(3-fluoro-2-methylbenzyl)-4-methylpyrrolidin-3-yl]-1,5-dihydro-4H-pyrazolo[3,4-d]pyrimidin-4-one] | 68.3 |
| Cc1ncc(CN2C[C@@H](C)[C@H](c3nc4c(cnn4C4CCCC4)c(=O)[nH]3)C2)cn1 (racemic) [Example 167, 1-cyclopentyl-6-{(3,4-trans)-4-methyl-1-[(2-methylpyrimidin-5-yl)methyl]pyrrolidin-3-yl}-1,5-dihydro-4H-pyrazolo[3,4-d]pyrimidin-4-one] | 40.7 |
| CCc1ncc(CN2C[C@@H](C)[C@H](c3nc4c(cnn4C4CCCC4)c(=O)[nH]3)C2)cn1 (racemic) [Example 168, 1-cyclopentyl-6-{(3,4-trans)-1-[(2-ethylpyrimidin-5-yl)methyl]-4-methylpyrrolidin-3-yl}-1,5-dihydro-4H-pyrazolo[3,4-d]pyrimidin-4-one] | 30.7 |
| CC(C)c1ccc(CN2C[C@@H](C)[C@H](c3nc4c(cnn4C4CCCC4)c(=O)[nH]3)C2)cc1 (racemic) [Example 169, 1-cyclopentyl-6-[(3,4-trans)-1-(4-isopropylbenzyl)-4-methylpyrrolidin-3-yl]-1,5-dihydro-4H-pyrazolo[3,4-d]pyrimidin-4-one] | 117 |
| CCn1cc(CN2C[C@@H](C)[C@H](c3nc4c(cnn4C4CCCC4)c(=O)[nH]3)C2)cn1 (racemic) [Example 170, 1-cyclopentyl-6-{(3,4-trans)-1-[(1-ethyl-1H-pyrazol-4-yl)methyl]-4-methylpyrrolidin-3-yl}-1,5-dihydro-4H-pyrazolo[3,4-d]pyrimidin-4-one] | 74.6 |
| COc1ccncc1CN1C[C@@H](C)[C@H](c2nc3c(cnn3C3CCCC3)c(=O)[nH]2)C1 (racemic) [Example 171, 1-cyclopentyl-6-{(3,4-trans)-1-[(4-methoxypyridin-3-yl)methyl]-4-methylpyrrolidin-3-yl}-1,5-dihydro-4H-pyrazolo[3,4-d]pyrimidin-4-one] | 51.3 |
| C[C@@H]1CN(Cc2ccno2)C[C@H]1c1nc2c(cnn2C2CCCC2)c(=O)[nH]1 (racemic) [Example 172, 1-cyclopentyl-6-[(3,4-trans)-1-(isoxazol-5-ylmethyl)-4-methylpyrrolidin-3-yl]-1,5-dihydro-4H-pyrazolo[3,4-d]pyrimidin-4-one] | 67 |
| CCOc1ccc(CN2C[C@@H](C)[C@H](c3nc4c(cnn4C4CCCC4)c(=O)[nH]3)C2)cc1 (racemic) [Example 173] | 64 |
| C[C@@H]1CN(Cc2ccc(C(C)(C)O)nc2)C[C@H]1c1nc2c(cnn2C2CCCC2)c(=O)[nH]1 (racemic) [Example 174, 1-cyclopentyl-6-[(3,4-trans)-1-{[6-(1-hydroxy-1-methylethyl)pyridin-3-yl]methyl}-4-methylpyrrolidin-3-yl]-1,5-dihydro-4H-pyrazolo[3,4-d]pyrimidin-4-one] | 42 |
